The supplement of paper PMC10307832

Tests used:
Test in all cases: relative viability (nuclei count vs DMSO), 5 days (fraction); higher = more cells survive
[1] = compound: CN(C)CC1=CC(=CC=C1)N=C(C2=CC=CC=C2)C3=C(NC4=C3C=CC(=C4)C(=O)N(C)C)O + Cc1nc(Nc2ncc(C(=O)Nc3c(C)cccc3Cl)s2)cc(N2CCN(CCO)CC2)n1 [Dasatinib] (partner 0.075 µM)
Outline: (§1)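 After 5 days of treatment, lung cancer cells in 1536-well plates were fixed and stained in a single step (final 0.05% Triton X-100, 1% formaldehyde, 1 ug/ml Hoechst) and their nuclei counted on 4× images. Treatment had been applied by pin tool the day after seeding as one drug alone or as a fixed anchor-drug dose with five library-drug doses (not always all listed) in √10 steps. Relative viability is the nuclei count of treated wells divided by that of vehicle wells, and values are medians of duplicate plates.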

[2] = compound: CN(C)CC1=CC(=CC=C1)N=C(C2=CC=CC=C2)C3=C(NC4=C3C=CC(=C4)C(=O)N(C)C)O + Nc1ncn([C@H]2C[C@H](O)[C@@H](CO)O2)c(=O)n1 [Decitabine] (partner 2 µM)
Outline: as §1

[3] = compound: CN(C)CC1=CC(=CC=C1)N=C(C2=CC=CC=C2)C3=C(NC4=C3C=CC(=C4)C(=O)N(C)C)O + COc1cc2c(Oc3ccc(NC(=O)C4(C(=O)Nc5ccc(F)cc5)CC4)cc3F)ccnc2cc1OCCCN1CCOCC1 [Foretinib] (partner 0.25 µM)
Outline: as §1

[4] = compound: CN(C)CC1=CC(=CC=C1)N=C(C2=CC=CC=C2)C3=C(NC4=C3C=CC(=C4)C(=O)N(C)C)O + CCNC(=O)c1noc(-c2cc(C(C)C)c(O)cc2O)c1-c1ccc(CN2CCOCC2)cc1 [Luminespib] (partner 0.01 µM)
Outline: as §1

Row | Cell Line | relative viability ([1]; first compound 0.08 µM) | relative viability ([1]; first compound 0.253 µM) | relative viability ([1]; first compound 0.8 µM) | relative viability ([1]; first compound 2.53 µM) | relative viability ([1]; first compound 8 µM) | relative viability ([2]; first compound 0.08 µM) | relative viability ([2]; first compound 0.253 µM) | relative viability ([2]; first compound 0.8 µM) | relative viability ([2]; first compound 2.53 µM) | relative viability ([2]; first compound 8 µM) | relative viability ([3]; first compound 0.08 µM) | relative viability ([3]; first compound 0.253 µM) | relative viability ([3]; first compound 0.8 µM) | relative viability ([3]; first compound 2.53 µM) | relative viability ([3]; first compound 8 µM) | relative viability ([4]; first compound 0.08 µM) | relative viability ([4]; first compound 0.253 µM) | relative viability ([4]; first compound 0.8 µM) | relative viability ([4]; first compound 2.53 µM) | relative viability ([4]; first compound 8 µM)
1 | HCC-366 | 0.71 | 0.8 | 0.592 | 0.502 | 0.564 | 0.385 | 0.36 | 0.34 | 0.333 | 0.341 | 0.903 | 0.889 | 0.888 | 0.83 | 0.85 | – | – | – | – | –
2 | HCC-827 | 0.382 | 0.25 | 0.203 | 0.294 | 0.236 | 0.334 | 0.349 | 0.305 | 0.367 | 0.341 | 1.05 | 1.08 | 1.01 | 1.02 | 0.876 | 0.442 | 0.651 | 0.457 | 0.723 | 0.489
3 | HOP-62 | 0.618 | 0.703 | 0.65 | 0.571 | 0.579 | 0.21 | 0.282 | 0.195 | 0.206 | 0.262 | 1.08 | 1.01 | 1.12 | 1.05 | 1.17 | 0.818 | 0.933 | 0.977 | 0.929 | 1.05
4 | IA-LM | – | – | – | – | – | – | – | – | – | – | 1.16 | 1.19 | 1.3 | 1.18 | 1.32 | – | – | – | – | –
5 | LC-2-ad | 0.697 | 0.593 | 0.751 | 0.409 | 0.44 | 0.694 | 0.848 | 0.747 | 0.841 | 0.782 | 0.993 | 0.881 | 0.884 | 0.919 | 0.969 | 1.01 | 0.894 | 1.06 | 0.863 | 0.973
6 | LCLC-97TM1 | 0.816 | 0.922 | 0.785 | 0.786 | 0.821 | 0.271 | 0.261 | 0.225 | 0.219 | 0.205 | 0.958 | 0.821 | 0.822 | 0.917 | 0.975 | 0.757 | 0.849 | 0.771 | 0.957 | 0.834
7 | LCLC-103H | 0.482 | 0.487 | 0.435 | 0.42 | 0.497 | 0.785 | 0.725 | 0.723 | 0.739 | 0.641 | 0.746 | 0.826 | 0.825 | 0.841 | 0.508 | 0.948 | 0.959 | 1.07 | 0.926 | 0.863
8 | LK-2 | 0.296 | 0.389 | 0.25 | 0.328 | 0.275 | 0.306 | 0.375 | 0.276 | 0.328 | 0.286 | 1.15 | 1.16 | 1.27 | 1.15 | 1.17 | 0.229 | 0.164 | 0.188 | 0.183 | 0.138
9 | LOU-NH91 | 0.572 | 0.552 | 0.485 | 0.539 | 0.503 | 0.781 | 0.822 | 0.757 | 0.803 | 0.818 | 0.931 | 0.882 | 0.732 | 0.917 | 0.936 | 0.308 | 0.32 | 0.358 | 0.337 | 0.322
10 | LU99A | 0.578 | 0.646 | 0.611 | 0.401 | 0.373 | 0.925 | 0.79 | 0.885 | 0.927 | 0.673 | 0.787 | 0.842 | 0.926 | 0.809 | 0.781 | 0.238 | 0.246 | 0.285 | 0.258 | 0.234
11 | LXF-289 | 0.203 | 0.216 | 0.246 | 0.242 | 0.205 | 0.343 | 0.368 | 0.366 | 0.384 | 0.374 | 0.966 | 0.9 | 1.03 | 0.93 | 0.929 | 0.694 | 0.675 | 0.6 | 0.652 | 0.623
12 | NCI-H23 | 0.739 | 0.933 | 0.916 | 0.823 | 0.849 | – | 0.332 | 0.303 | 0.343 | 0.346 | 1.1 | 1.1 | 0.622 | 1.18 | 0.81 | 0.21 | 0.203 | 0.196 | 0.242 | 0.243
13 | NCI-H322M | 0.253 | 0.266 | 0.251 | 0.247 | 0.252 | 0.598 | 0.719 | 0.644 | 0.652 | 0.567 | 0.887 | 1.02 | 0.831 | 0.831 | 0.666 | 0.808 | 0.864 | 0.62 | 0.707 | 0.532
14 | NCI-H522 | 0.938 | 0.97 | 0.788 | 0.837 | 0.982 | 0.672 | 0.673 | 0.635 | 0.597 | 0.574 | – | – | – | – | – | 1.16 | 1.13 | 1.12 | 1.22 | 0.819
15 | NCI-H1563 | 0.437 | 0.489 | 0.579 | 0.389 | 0.411 | – | – | – | – | – | 0.941 | 0.967 | 0.917 | 0.857 | 0.948 | 0.49 | 0.467 | 0.538 | 0.576 | 0.495
16 | NCI-H1648 | – | – | – | – | – | 0.418 | 0.568 | – | 0.538 | 0.544 | – | – | – | – | – | – | – | – | – | –
17 | NCI-H1703 | – | – | – | – | – | – | – | – | – | – | 0.334 | 0.489 | 0.333 | 0.261 | 0.316 | – | – | – | – | –
18 | NCI-H1792 | 0.903 | 0.856 | 0.851 | 0.646 | 0.598 | 0.506 | 0.594 | 0.585 | 0.484 | 0.602 | – | – | – | – | – | 0.501 | 0.453 | 0.386 | 0.452 | 0.385
19 | NCI-H2228 | 0.518 | 0.484 | 0.479 | 0.424 | 0.412 | – | – | – | – | – | 0.946 | 0.904 | 0.77 | 0.88 | 0.708 | 0.134 | 0.152 | 0.142 | 0.164 | 0.137
